Measurements: PubChem BioAssay (NCI)
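Following 48 hours of exposure in 96-well plates, responses at five concentrations were used to interpolate endpoints linearly. GI50 = concentration required for 50% inhibition of growth. TGI: total growth inhibition.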

Columns and labels:
Experiment in all cases: NCI-60 cell line screen, 48 h
[1] = test system: SF-295 CNS
[2] = test system: IGROV1 ovarian
[3] = test system: HCT-116 colon
[4] = test system: MOLT-4 leukemia
[5] = test system: UO-31 renal
[6] = test system: DU-145 prostate
[7] = test system: SNB-19 CNS
[8] = test system: T-47D breast
[9] = test system: A498 renal
[10] = test system: NCI-H460 lung
[11] = test system: NCI-H23 lung
[12] = test system: NCI-H522 lung
[13] = test system: OVCAR-5 ovarian
[14] = test system: OVCAR-3 ovarian
[15] = test system: ACHN renal
[16] = test system: HT29 colon
[17] = test system: CAKI-1 renal
[18] = test system: HCC-2998 colon
[19] = test system: PC-3 prostate
[20] = test system: SK-OV-3 ovarian
[21] = test system: CCRF-CEM leukemia
[22] = test system: KM12 colon
[23] = test system: HL-60(TB) leukemia
[24] = test system: NCI/ADR-RES ovarian
[25] = test system: MCF7 breast
[26] = test system: U251 CNS
[27] = test system: SK-MEL-2 melanoma
[28] = test system: HS 578T breast
[29] = test system: SF-268 CNS

## CCOC(=O)C1=C(C)NC(C)=C(C(=O)OCC)C1c1cc(Br)c(O)c(OC)c1
[1]
  TGI: 10.5 µM
[2]
  GI50: 7.39 µM
  TGI: 37.2 µM
[3]
  GI50: 3.97 µM
  TGI: 13.5 µM
[4]
  GI50: 3.61 µM
  TGI: 52.4 µM
[5]
  GI50: 4.55 µM
  TGI: 25.2 µM
[6]
  GI50: 3.88 µM
  TGI: 13.1 µM
[7]
  GI50: 4.25 µM
  TGI: 16.8 µM
[8]
  GI50: 8.53 µM
  TGI: 46.6 µM
[9]
  GI50: 2.19 µM
  TGI: 7.13 µM
[10]
  GI50: 3.98 µM
  TGI: 14.4 µM
[11]
  GI50: 4.81 µM
  TGI: 22.4 µM
[12]
  GI50: 4.22 µM
  TGI: 20.1 µM
[13]
  GI50: 4.32 µM
  TGI: 15.9 µM
[14]
  GI50: 2.34 µM
  TGI: 5.15 µM
[15]
  GI50: 5.56 µM
  TGI: 22 µM
[16]
  GI50: 4.72 µM
  TGI: 18.2 µM
[17]
  GI50: 4.79 µM
  TGI: 30.8 µM
[18]
  GI50: 3.12 µM
  TGI: 10.8 µM
[19]
  GI50: 3.62 µM
  TGI: 27.2 µM
[20]
  GI50: 2.92 µM
  TGI: 7.38 µM
[21]
  GI50: 3.37 µM
  TGI: 15.7 µM
[22]
  GI50: 3.74 µM
  TGI: 14 µM
[23]
  GI50: 2.35 µM
  TGI: 6.35 µM
[24]
  GI50: 2.71 µM
  TGI: 9.4 µM
[25]
  GI50: 4.41 µM
  TGI: 23.9 µM
[26]
  GI50: 4.01 µM
  TGI: 15.6 µM
[27]
  GI50: 5.29 µM
  TGI: 20.1 µM
[28]
  GI50: 2.54 µM
  TGI: 9.47 µM
[29]
  GI50: 5.36 µM
  TGI: 22.4 µM
